# Measured values from PMC4503722, “Novel Phenotypic Outcomes Identified for a Public Collection of Approved Drugs from a Publicly Accessible Panel of Assays” (PLoS ONE, 2015).
# Read-outs that look alike come from different tables or passages of the source. Where a SMILES comes first, the peptide text is derived from it. [ ]: non-standard residue; d: D form. The star is where a group is joined. Sta = CC(C)C[C@H](N)[C@@H](O)CC(=O)O; Isovaleryl = CC(C)CC(=O)*
# How the values were obtained:
# Experiment in all cases: cells
# [1] = test system: endothelial tube formation in co-cultures of ECFCs and ADSCs treated with VEGF; type: cell-based, human
# [2] = test system: nuclear β-catenin in C2C12 cells; type: cell-based
# INS-1E cells = type: cell-based, rat
# NCI-H716 cells = type: cell-based, Human
# HeLa cells = type: cell-based; details: read-out: CellCycle G2/M
# DLD-1 = type: cell-based
# SW480 = type: cell-based
# HCT116 = type: cell-based
# [3] = test system: HCT116 cells treated with a GSK3β inhibitor; type: cell-based
# [4] = Homo sapiens, read-out: Anti-Angio IC50
# [5] = Homo sapiens, read-out: Anti-Angiogenesis
# [6] = Rattus norvegicus, INS-1E, read-out: Ins. sec. EC50
# [7] = Homo sapiens, NCI-H716, read-out: GLP1 sec. EC50
# [8] = Homo sapiens, HeLa, S2 Table, HeLa, 20 = no response at highest concentration
# [9] = Homo sapiens, DLD-1, 72 h, Table 2, 72 h, Cell TiterGlo, non-adherent, 20 coded, read-out: DLD-1 viab. IC50
# [10] = Homo sapiens, SW480, 72 h, Table 2, 72 h, Cell TiterGlo, non-adherent, 20 coded, read-out: SW480 viab. IC50
# [11] = Homo sapiens, SW480, basal, SW480, read-out: Basal_Viability ATP SW480
# [12] = Homo sapiens, HCT-116, 72 h, read-out: HCT-116 viab. IC50, Table 2, basal, 72 h, Cell TiterGlo, non-adherent, 20 coded
# [13] = Mus musculus, C2C12, S2 Table, module primary assay, 20 / 20.1 codes per legend, read-out: Wnt Pathway
# [14] = Rattus norvegicus, INS-1E, read-out: Insulin Secretion
# [15] = Homo sapiens, NCI-H716, read-out: GLP 1 Secretion
# [16] = Homo sapiens, DLD-1, basal, DLD-1, read-out: Basal_Viability ATP DLD-1
# [17] = Homo sapiens, HCT-116, basal, HCT116, read-out: Basal_Viability ATP HCT116
# [18] = Homo sapiens, HCT-116, HCT116 pretreated with GSK3b inhibitor, read-out: GSK3b inh pretreated_Viability ATP HCT116
# [19] = Homo sapiens, IC50 / EC50, endothelial tube area, ADSC/ECFC co-culture, read-out: Anti-Angiogenesis
# [20] = Mus musculus, C2C12, IC50 / EC50, C2C12 beta-catenin translocation, read-out: Wnt Pathway
# [21] = Rattus norvegicus, IC50 / EC50, INS-1E, read-out: Insulin Secretion
# [22] = Homo sapiens, IC50 / EC50, NCI-H716, read-out: GLP 1 Secretion
# [23] = Homo sapiens, HeLa, IC50 / EC50, HeLa
# [24] = Homo sapiens, DLD-1, basal, read-out: Basal_Viability ATP DLD-1
# [25] = Homo sapiens, SW480, basal, read-out: Basal_Viability ATP SW480
# [26] = Homo sapiens, HCT-116, basal, read-out: Basal_Viability ATP HCT116
# [27] = Homo sapiens, HCT-116, GSK3b inhibitor pretreated, read-out: GSK3b inh pretreated_Viability ATP HCT116
structure (smiles),measurement,setting,value
"Cc1ccc(Nc2nccc(N(C)c3ccc4c(C)n(C)nc4c3)n2)cc1S(N)(=O)=O [pazopanib, reference compound]",IC50,[1]; [4],0.047 µM
same,IC50,[1]; [5],0.0465 µM
same,activity in the Wnt potentiation module (in words),[2],"None of these agents, however, possessed appreciable activity"
same,EC50,"[2]; Mus musculus, C2C12, Table 2, C2C12, […], 20 / 20.1 coded, read-out: Wnt pot. EC50",> 10 µM
same,EC50,INS-1E cells; [6],> 10 µM
same,EC50,NCI-H716 cells; [7],> 10 µM
same,EC50,HeLa cells; [8],> 10 µM
same,IC50,DLD-1; [9],> 20 µM
same,IC50,SW480; [10],5.7 µM
same,IC50,SW480; [11],5.68 µM
same,IC50,HCT116; [12],> 20 µM
same,IC50,"[3]; Homo sapiens, HCT-116, 72 h, read-out: HCT-116 (GSK3β) viab. IC50",> 20 µM
CC(C)=CCC/C(C)=C/CC/C(C)=C/C(=O)OCC(=O)[C@@]1(O)CC[C@H]2[C@@H]3CCC4=CC(=O)C=C[C@]4(C)[C@H]3[C@@H](O)C[C@@]21C [prednisolone farnesil],IC50,[1]; read-out: Anti-Angiogenesis,3.34 µM
same,EC50,[2]; read-out: Wnt Pathway,> 10 µM
same,EC50,INS-1E cells; read-out: Insulin Secretion,> 10 µM
same,EC50,NCI-H716 cells; read-out: GLP 1 Secretion,> 10 µM
same,EC50,HeLa cells,> 10 µM
same,IC50,DLD-1; read-out: Basal_Viability ATP DLD-1,7.93 µM
same,IC50,SW480; read-out: Basal_Viability ATP SW480,8.11 µM
same,IC50,HCT116; read-out: Basal_Viability ATP HCT116,5.74 µM
same,IC50,[3]; read-out: GSK3b inh pretreated_Viability ATP HCT116,7.19 µM
CC(C)CC(=O)N[C@H](C(=O)N[C@H](C(=O)N[C@@H](CC(C)C)[C@@H](O)CC(=O)N[C@@H](C)C(=O)N[C@@H](CC(C)C)[C@@H](O)CC(=O)O)C(C)C)C(C)C [Pepstatin] (Isovaleryl-VV[Sta]A[Sta]-OH),IC50,[1]; [5],1.24 µM
same,EC50,[2]; [13],> 10 µM
same,EC50,INS-1E cells; [14],> 10 µM
same,EC50,NCI-H716 cells; [15],> 10 µM
same,EC50,HeLa cells; [8],> 10 µM
same,IC50,DLD-1; [16],> 20 µM
same,IC50,SW480; [11],> 20 µM
same,IC50,HCT116; [17],> 20 µM
same,IC50,[3]; [18],17.7 µM
CO[C@@H]1[C@@H](OC)[C@H](C)[C@@](O)(CC(=O)O)O[C@H]1[C@H](C)[C@H]1O[C@@]2(CC[C@@](C)([C@H]3CC[C@@](C)([C@@H]4O[C@@H]([C@H]5O[C@](C)(O)[C@H](C)C[C@@H]5C)C[C@@H]4O[C@@H]4C[C@H](OC)[C@@H](OC)[C@H](C)O4)O3)O2)C[C@H](O)[C@H]1C [Maduramicin ammonium],IC50,[1]; [19],0.252 µM
same,EC50,[2]; [20],> 10 µM
same,EC50,INS-1E cells; [21],> 10 µM
same,EC50,NCI-H716 cells; [22],> 10 µM
same,EC50,HeLa cells; [23],> 10 µM
same,IC50,DLD-1; [24],1.08 µM
same,IC50,SW480; [25],1.45 µM
same,IC50,HCT116; [26],8.6 µM
same,IC50,[3]; [27],1.16 µM
CN1CC[C@H](c2c(O)cc(O)c3c(=O)cc(-c4ccccc4Cl)oc23)[C@H](O)C1 [Flavopiridol],IC50,[1]; [19],0.114 µM
same,EC50,[2]; [20],0.191 µM
same,EC50,INS-1E cells; [21],> 10 µM
same,EC50,NCI-H716 cells; [22],> 10 µM
same,EC50,HeLa cells; [23],> 10 µM
same,IC50,DLD-1; [24],0.0684 µM
same,IC50,SW480; [25],2.11 µM
same,IC50,HCT116; [26],16.7 µM
same,IC50,"[3]; Homo sapiens, HCT-116, read-out: GSK3b inh pretreated_Viability ATP HCT116",0.297 µM
"Cc1nc(Nc2ncc(C(=O)Nc3c(C)cccc3Cl)s2)cc(N2CCN(CCO)CC2)n1 [dasatinib, reference compound]",IC50,[1]; [4],> 10 µM
same,EC50,"[2]; Mus musculus, C2C12, read-out: Wnt Pathway",0.0067 µM
same,EC50,"[2]; Mus musculus, C2C12, read-out: Wnt pot. EC50",0.007 µM
same,EC50,INS-1E cells; [6],> 10 µM
same,EC50,NCI-H716 cells; [7],> 10 µM
same,EC50,HeLa cells; [8],> 10 µM
same,IC50,DLD-1; [9],3.5 µM
same,IC50,DLD-1; [16],3.52 µM
same,IC50,SW480; [10],7 µM
same,IC50,SW480; [11],7.02 µM
same,IC50,HCT116; [12],11.9 µM
same,IC50,HCT116; [17],11.9 µM
same,IC50,"[3]; Homo sapiens, HCT-116, read-out: HCT-116 (GSK3β) viab. IC50, Table 2, GSK3β inhibitor LY2090314 20 nM, 72 h, Cell TiterGlo, 20 coded",> 20 µM
NCCNc1ccc(NCCN)c2c1C(=O)c1ccncc1C2=O [pixantrone],IC50,[1]; [19],0.0465 µM
same,EC50,[2]; [20],> 10 µM
same,EC50,INS-1E cells; [21],> 10 µM
same,EC50,NCI-H716 cells; [22],> 10 µM
same,EC50,HeLa cells; [23],0.0483 µM
same,IC50,DLD-1; [24],> 20 µM
same,IC50,SW480; [25],> 20 µM
same,IC50,HCT116; [26],> 20 µM
same,IC50,[3]; [27],14.6 µM
C[C@@H]1C[C@H]2[C@@H]3CCC4=CC(=O)C=C[C@]4(C)[C@@]3(Cl)[C@@H](O)C[C@]2(C)[C@@]1(OC(=O)c1ccco1)C(=O)CCl [Mometasone furoate],IC50,[1]; [5],4.99 µM
same,EC50,[2]; [13],> 10 µM
same,EC50,INS-1E cells; [14],> 10 µM
same,EC50,NCI-H716 cells; [15],> 10 µM
same,EC50,HeLa cells; [8],> 10 µM
same,IC50,DLD-1; [16],8.42 µM
same,IC50,SW480; [11],4.89 µM
same,IC50,HCT116; [17],14.5 µM
same,IC50,[3]; [18],> 20 µM
O=c1[nH]c(=O)n([C@H]2C[C@H](O)[C@@H](CO)O2)cc1I [idoxuridine],IC50,[1]; [5],0.681 µM
same,EC50,[2]; [13],> 10 µM
same,EC50,INS-1E cells; [14],> 10 µM
same,EC50,NCI-H716 cells; [15],> 10 µM
same,EC50,HeLa cells; [8],> 10 µM
same,IC50,DLD-1; [16],> 20 µM
same,IC50,SW480; [11],> 20 µM
same,IC50,HCT116; [17],> 20 µM
same,IC50,[3]; [18],> 20 µM
